From paper PMC5970127, “In vivo evaluation of two tissue transglutaminase PET tracers in an orthotopic tumour xenograft model” (EJNMMI Research, 2018)
Values joined by “and” are separate entries in the source; they are usually repeats but may differ in a detail not shown here. Equal values may be shown once. Read-outs that look alike come from different tables or passages of the source.

Key:
[1] = tested on: MDA-MB-231 tumour sections; design: method as in PMID 27067043, PMID 27837727; conditions: cited from earlier work
[2] = Plasma metabolite analysis after i.v. administration in SCID mice; type: in vivo; conditions: mouse plasma
Experimental: Healthy female SCID mice (20–25 g, Harlan, Horst, The Netherlands) were injected in the tail vein with [^11C]1 or [^18F]2 (20 MBq) under isoflurane anaesthesia (2% in O2 at 1 L · min^−1). Mice were sacrificed at 15 and 45 min post injection (n = 3 for each time-point) by cervical dislocation. Blood (~ 0.5–1 mL) was withdrawn by heart puncture, collected in a heparin-coated tube and centrifuged at 5000 RPM to separate plasma from blood cells. Solid phase extraction (SPE) cartridges (tC18, Waters, Milford, MA, USA) were preconditioned by washing with methanol (MeOH, 6 mL) and H2O (two times 6 mL). Plasma (~ 0.2 mL) was mixed with 0.15 M HCl (0.2 mL) and loaded on the tC18 cartridge. The polar fraction was obtained by elution of the cartridge with H2O (3 mL), the non-polar fraction by subsequent elution with MeOH (1.5 mL) and H2O (0.5 mL). Both fractions were counted for radioactivity in a gamma counter. The percentage of intact tracer in the non-polar fraction was determined by online and offline HPLC analysis (Gemini C18 column (5 μm, 10 mm × 250 mm, Phenomenex, Torrance, CA, USA) with eluent MeCN (A) and 0.1% TFA acid in H2O (B) as eluent according to the following schemes; For [^11C]1: 0 min, 70% B at 0.25 mL · min^−1; 0.5 min, 70% B at 3.5 mL · min^−1; 9.0 min, 10% B at 3.5 mL · min^−1; 12.0 min, 10% B at 3.5 mL · min^−1; 12.5 min, 70% B at 3.5 mL · min^−1; 14.5 min, 70% B at 3.5 mL · min^−1 and 15 min, 70% B at 0.25 mL · min^−1 or for [^18F]2: 0 min, 80% B at 0.25 mL · min^−1; 0.5 min, 80% B at 3 mL · min^−1; 6.0 min, 30% B at 3 mL · min^−1; 12.0 min, 30% B at 3 mL · min^−1; 12.5 min, 80% B at 3.0 mL · min^−1; 14.5 min, 80% B at 3.0 mL · min^−1; 15.0 min, 80% B at 0.25 mL · min^−1 (Rt = 11.5 min). Offline HPLC analysis was performed when the online HPLC analysis yielded a low signal to noise ratio. For offline analysis, HPLC fractions (30 s per fraction) were collected and counted for radioactivity (WIZARD 2480 Compugamma, PerkinElmer, Waltham, MA, USA). The counting results were plotted to generate the corresponding HPLC chromatograms. Data were expressed as percentage of intact tracer, polar metabolites, and non-polar metabolites ± standard deviation.
To healthy SCID mice (n = 2) 10 MBq [^18F]2 diluted with 50 μg (2.5 mg · kg^−1) of unlabelled 2 was administered, corresponding to a molar activity of 0.14 GBq · μmol^−1. At 30 min post injection, animals were sacrificed under isoflurane anaesthesia (2% in O2 at 1 L · min^−1) by cervical dislocation. Blood (~ 1 mL) was collected by heart puncture. Blood plasma was separated using a SPE procedure as described in the “Metabolite analysis” section (vide supra). The non-polar fraction was analysed by HPLC and Liquid chromatography–tandem mass spectrometry (LC-MS/MS) in multiple reaction monitoring (MRM) mode. […]

activated FXIII = tested on: activated FXIII; design: method as in PMID 27067043, PMID 27837727; conditions: cited from earlier work
MDA-MB-231 tumour = experiment: Dynamic PET imaging in orthotopic MDA-MB-231 tumour xenograft model; type: in vivo, SCID mice
Experimental: Severe combined immunodeficient (SCID) female mice (6–8 weeks, 20 to 25 g, Charles River, Wilmington, MA, USA) were housed in sterile cages under standard conditions (24 °C, 60% relative humidity, 12-h light/dark cycles) and provided with water and food ad libitum. MDA-MB-231 cells (1 × 10^6) were injected orthotopically in the fat pad of the second thoracic mammary glands (bilateral). Tumour dimensions were measured using a Vernier calliper, and tumour volume was calculated using the formula (x^2 y)/2 (x and y being the width and length, respectively) for an ellipsoid. At 8 weeks after MDA-MB-231 cell injection, tumours reached the target size of 200 mm^3. This study was performed according to national regulations and was approved by the Animal Experimentation Ethics Committee of the VU University Medical Center.
Dynamic PET imaging was performed using dedicated small animal NanoPET/CT and NanoPET/MR scanners (Mediso Ltd., Hungary, Budapest) with identical PET components. Mice (n = 4 per group) were anaesthetized with 4 and 2% isoflurane in 1 L · min^−1 oxygen for induction and maintenance, respectively. Mice were positioned on the scanner bed, and the respiratory rate was monitored for the duration of the scan, adjusting anaesthesia when required. A dynamic PET scan was acquired immediately after intravenous (i.v.) administration (tail vein) of 5 MBq [^11C]1 or [^18F]2. For blocking experiments, mice were injected subcutaneously with ERW1041E (50 mg · kg^−1) dissolved in 20% dimethylsulfoxide in 0.9% saline, 30 min prior to the tracer injection. An additional blocking experiment was performed by co-administration of compound 2 (50 μg, 75 nmol) and [^18F]2, which corresponded with a molar activity of 0.07 GBq · μmol^−1. PET scans were acquired in list mode and rebinned into the following frame sequence: 4 × 5, 4 × 10, 2 × 30, 3 × 60, 2 × 300, 1 × 600, 1 × 900 and 1 × 1200 s. In addition, a static [^18F]2-fluoro-2-deoxy-D-glucose ([^18F]FDG) scan was acquired for 30 min immediately after [^18F]FDG administration (10 MBq, tail vein). At least a 24-h time interval between [^18F]FDG scans and [^11C]1 or [^18F]2 scans was maintained. Reconstruction was performed with a fully 3-dimensional (3D) reconstruction algorithm using four iterations and six subsets, resulting in an isotropic 0.4-mm voxel dimension. Images were analysed using the freely available AMIDE-software version 1.0.4 (retrieved from https://sourceforge.net/projects/amide/files/amide/1.0.4). Regions of interest (ROIs) were drawn around the tumour tissue and leg muscle. Results are expressed as percentage injected dose per gram (%ID/g). Error bars indicate standard deviation. After PET scanning experiments, animals were sacrificed by cervical dislocation, tumours were isolated, and stored at − 80 °C until further use.

TG2 [3] = tested on: TG2; design: method as in PMID 27067043, PMID 27837727; conditions: TG2 inhibition; cited from earlier work
[4] = cited from earlier work; for Intact (%) / Non-polar (%) / Polar (%): rat plasma
TG2 [5] = tested on: TG2; design: method as in PMID 24152195; conditions: cited from earlier work
TG2 [6] = biological target: TG2; design: method as in PMID 17149878; conditions: cited from earlier work
[7] = 15 min after i.v., % of total blood plasma activity ± SD
[8] = animals sacrificed at 60 min post injection (listed under 45 min)

Row | SMILES | Binding to MDA-MB-231 tumour sections (in vitro autoradiography) [1] | Intact (%) [2, 7] | Intact (%) ([2]; 45 min after i.v.) | Affinity for activated FXIII (activated FXIII) | IC50 (TG2 [3]) | Intact (%) ([4]; 15 min after i.v.) | Non-polar (%) ([4]; 15 min after i.v.) | Polar (%) ([4]; 15 min after i.v.) | further results
1 | C=C[11C](=O)NCCCC[C@H](NC(=O)Cc1ccccc1)C(=O)N1CCN(c2cccc(C)n2)CC1 [[^11C]1, (S)-N-(6-(4-(6-methylpyridin-2-yl)piperazin-1-yl)-6-oxo-5-(2-phenylacetamido)hexyl)[^11C]acrylamide] | specific and selective binding | 56 ± 14% | 24% and 24 ± 1% | no affinity | 53 nM | 65 ± 7% | 13 ± 4% | 21 ± 3% | Effect of ERW1041E pretreatment on tumour activity (MDA-MB-231 tumour; ERW1041E 50 mg/kg s.c. 30 min prior to tracer): significant increase in tumour activity; Time of peak tumour uptake after injection (MDA-MB-231 tumour; baseline): 5 to 10 min; Tumour uptake (MDA-MB-231 tumour; baseline, 40–60 min p.i., 5 MBq i.v.): approx. 0.5 %ID/g; Intact (%) ([4]; 45 min after i.v.): 29 ± 11%; Non-polar (%) ([4]; 45 min after i.v.): 6 ± 3%; Polar (%) ([4]; 45 min after i.v.): 65 ± 12%
2 | O=C(NC[C@@H]1CC(Br)=NO1)[C@@H]1CCCN1C(=O)OCc1cnc2ccccc2c1 [ERW1041E, Quinolin-3-ylmethyl (S)-2-((((S)-3-bromo-4,5-dihydroisoxazol-5-yl)methyl)carbamoyl)pyrrolidine-1-carboxylate] | – | – | – | – | – | – | – | – | Inhibition of TG2 activity in mouse model of pulmonary hypertension (TG2 [5]; 50 mg/kg): inhibition of TG2 activity to background levels; Reduction of TG2 activity in pulmonary hypertension model (TG2 [5]; 30 min after administration): factor of four; Time of maximum TG2 inhibitory effect after administration (TG2 [5]): 30 min; Ki (TG2 [6]): 11000 nM
3 | COC(=O)[C@H](CC(C)C)NC(=O)[C@@H]1CCCN1C(=O)[C@@H](NC(=O)[C@H](CCC(=O)C=[N+]=[N-])NC(=O)CO/N=C/c1ccc([18F])cc1)C(C)C [[^18F]2, (S)-methyl 2-((S)-1-((7S,10S,E)-7-(4-diazo-3-oxobutyl)-1-(4-[^18F]fluorophenyl)-10-isopropyl-5,8-dioxo-3-oxa-2,6,9-triazaundec-1-en-11-oyl)pyrrolidine-2-carboxamido)-4-methylpentanoate] | specific and selective binding | 20 ± 1% | 3 ± 2% | no affinity | 104 nM | 1 ± 1% | 98 ± 1% | 2 ± 0% | Tumour activity after pretreatment with ERW1041E (MDA-MB-231 tumour; ERW1041E 50 mg/kg s.c. 30 min prior to tracer, 40–60 min, p = 0.06 vs baseline): 1.4 %ID/g; Background (muscle, right femur) activity (MDA-MB-231 tumour; baseline, 40–60 min time-frame): 0.8 %ID/g; Tumour activity with co-administered unlabelled 2 (MDA-MB-231 tumour; self-blocking, 2 (50 μg, 75 nmol) co-administered, 40–60 min, p = 0.007): approximately 1.0 %ID/g; Metabolism in vivo ([4]; 15 min post injection): completely metabolised; Intact (%) [4, 8]: 0 ± 0 %; Non-polar (%) [4, 8]: 92 ± 3 %; Polar (%) [4, 8]: 8 ± 3 %
4 | CC(C)C[C@H](NC(=O)[C@@H]1CCCN1C(=O)[C@@H](NC(=O)[C@H](CCC(=O)C=[N+]=[N-])NC(=O)CO/N=C/c1ccc([18F])cc1)C(C)C)C(=O)O [[^18F]M1] | – | – | – | – | 45 nM | – | – | – | –
